Data from patent US8481496B2, “Gold (III) complexes with oligopeptides functionalized with sulfur donors and use thereof as antitumor agents” (Universita' Degli Studi di Padova, priority 2009, dated 2013).

Experiments:
MDA-MB-231 tumor = conditions: MDA-MB-231 tumor-bearing nude mice; cited from earlier work
[1] = tested on: cisplatin-sensitive (2008) and -resistant (C13*) human ovarian carcinoma cells; conditions: cited from earlier work
[2] = tested on: human prostate carcinoma PC3 cells; assay: In vitro cytotoxicity, BrdU cell proliferation ELISA; format: cell-based; conditions: 72 h exposure, 0.05-10 μM
Procedure: Human prostate carcinoma PC3 cells (established from bone marrow metastasis and unresponsive to androgen treatment) were cultured in IMDM (Iscove's Modified Dulbecco's medium) supplemented with 10% heat-inactivated fetal bovine serum (FBS), penicillin (2 mg mL^−1), streptomycin (2 mg mL^−1), L-glutamine (0.1% w/v) at 37° C. in 5% CO2 and moisture-enriched atmosphere.
Before use, [Au^IIIX2(pdtc)] complexes (AUD6, AUD7, AUD8, AUD9) and cisplatin were dissolved in methyl sulfoxide (DMSO) just before the experiments. Calculated amounts of drug solutions were then added to the proper medium to a final concentration of 0.5% (v/v) DMSO which had no discernible effect on cell death.
For the cytotoxicity assay, cells (2.5×10^3 cells mL^−1) were seeded in 96-well flat-bottomed microplates in IMDM supplemented with 10% heat-inactivated FBS and incubated at 37° C. in a 5% CO2 atmosphere. The medium was then removed and replaced with a fresh one containing the compounds to be studied (previously dissolved in DMSO) at increasing concentrations (0.05-10 μM), thus exposing cells to the investigated compounds for 72 h. Triplicate cultures were established for each treatment. Cell viability was determined by a cell proliferation ELISA 5-bromo-2′-deoxyuridine colorimetric kit, according to the manufacturer's protocol. […] For comparison purposes, the cytotoxicity of cisplatin was evaluated under the same experimental conditions.

[3] = tested on: estrogen receptor α-negative human breast cancer MDA-MB-231 cells; assay: Growth inhibition, MTT assay; format: cell-based; conditions: 1-50 μM, 22 h, FIG. 2
Procedure: The growth-inhibitory effect of AUD6 and AUD8 on estrogen receptor α-negative human breast cancer MDA-MB-231 cells has been also evaluated. Cells were grown in RPMI 1640 medium supplemented with 10% heat-inactivated fetal bovine serum, penicillin (100 units mL^−1), streptomycin (100 μg mL^−1), L-glutamine (0.1% w/v) at 37° C. in 5% CO2 and moisture-enriched atmosphere. For the cytotoxicity assay, cells were seeded in 96-well microplates in RPMI 1640 medium and grown to 70% to 80% confluency followed by addition of the compounds to be studied (previously dissolved in DMSO) at increasing concentrations (1-50 μM) and incubated at 37° C. in a 5% CO2 atmosphere, thus exposing cells to the investigated compounds for 22 h. Triplicate cultures were established for each treatment. Cell respiration, as an indicator of cell viability, was determined by the mitochondrial-dependent reduction of MTT (3-(4,5-dimethylthiazol-2-yl)-2,5-diphenyltetrazolium bromide) to formazan as previously described [V. Milacic, D. Chen, L. Ronconi, K. R. Landis-Piwowar, D. Fregona, Q. P. Dou, Cancer Res. 2006, 66, 10478-10486]. Cell viability was calculated by dividing the average absorbance of the cells treated with the test compounds by that of the control, the standard deviation being estimated from the average of three trials.

[4] = tested on: purified rabbit 20S proteasome; assay: Inhibition of proteasomal chymotrypsin-like activity, purified proteasome; format: biochemical; conditions: for potency relative to previously investigated Au(III)-dithiocarbamato analogues: purified rabbit 20S proteasome; for inhibition of proteasomal chymotrypsin-like activity: purified rabbit 20S proteasome (35 ng), 0.1-25 μM, 2 h, FIG. 3A
Procedure: (§1) To investigate whether these compounds could also have the proteasome as a biological target, purified rabbit 20S proteasome (35 ng) or MDA-MB-231 whole cell extract (10 μg) were incubated with 20 μM of the substrate (for proteasomal chymotryptic (CT) activity) in 100 μL assay buffer (20 mmol L^−1 Tris-HCl (pH 7.5) in the presence of the compounds to be studied (previously dissolved in DMSO) at increasing concentrations (0.1-25 μM) or equivalent volume of neat DMSO as control. After 2 h incubation at 37° C., inhibition of each proteasomal chymotryptic activity was measured as previously described [V. Milacic et al. 2006, ref. cit.].

[5] = target: T1, MDA-MB-231 whole cell extract (Homo sapiens, UniProt P28074); assay: Inhibition of proteasomal chymotrypsin-like activity, whole cell extract; format: biochemical; conditions: for potency relative to previously investigated Au(III)-dithiocarbamato analogues: MDA-MB-231 whole cell extract; for inhibition of proteasomal chymotrypsin-like activity: MDA-MB-231 whole cell extract (10 μg), 0.1-25 μM, 2 h, FIG. 3B
T1 construct: MDA-MB-231 whole cell extract (10 μg); endogenous in cells; host or cells: MDA-MB-231 whole cell extract
T1 sequence (P28074 60-263): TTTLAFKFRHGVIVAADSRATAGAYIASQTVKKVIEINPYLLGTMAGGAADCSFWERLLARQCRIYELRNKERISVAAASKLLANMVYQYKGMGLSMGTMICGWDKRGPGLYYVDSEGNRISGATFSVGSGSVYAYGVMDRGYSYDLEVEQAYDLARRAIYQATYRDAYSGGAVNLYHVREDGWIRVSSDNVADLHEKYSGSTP
Procedure: as §1

[6] = tested on: proteasome target proteins, such as Bax and p27; assay: Accumulation of proteasome target proteins; format: cell-based; conditions: preliminary
[7] = tested on: human breast cancer (MDA-MB-231) xenografts; assay: Human breast tumor xenograft experiments; format: in vivo; conditions: 1.0 mg kg−1 s.c. daily, after 13 days, female athymic nude mice
Procedure: Estrogen receptor α-negative human breast cancer MDA-MB-231 cells were grown in RPMI 1640 medium supplemented with 10% fetal bovine serum, penicillin (100 units mL^−1), and streptomycin (100 μg mL^−1) at 37° C. in 5% CO2 and moisture-enriched atmosphere.
Five week-old female athymic nude mice were purchased from Taconic Research Animal Services (Hudson) and housed according to protocols approved by the Institutional Laboratory Animal Care and Use Committee of Wayne State University. MDA-MB-231 cells (5.0×10^6 cells mL^−1 suspended in 0.1 mL of serum-free RPMI 1640 medium) were inoculated subcutaneously (s.c.) in right flank of each mouse (four mice per group). When tumors reached the size of ca. 120 mm^3, mice were randomly grouped and treated daily with s.c. injection of either 1.0 mg kg^−1 of AUD6 or AUD8, or vehicle [10% DMSO, 20% Cremophore/ethanol (3:1) and 70% PBS]. Tumor size was measured every other day using calipers and their volumes were calculated according to the formula width^2×length/2. Mice have being treated for 13 days. Initial tumor growth inhibition was analyzed.

Molecule: CN(C)C1=[S+][Au-]([Br])([Br])[S]1 [[Au^IIIBr2(DMDT)]]
- inhibition of tumor growth (MDA-MB-231 tumor): significant inhibition of tumor growth

Molecule: CCOC(=O)CN(C)C(=S)[S][Pt][Cl].c1ccncc1 [[Pt^IICl(ESDT)(py)]]
- inhibition of tumor cell growth compared with cisplatin ([1]; 2008 and C13* cells): greater inhibition of tumor cell growth than cisplatin
- cross-resistance in C13* cells ([1]; cisplatin-resistant C13* cells): complete lack of cross-resistance

Molecule: N.N.[Cl][Pt][Cl] [cisplatin, cis-dichlorodiamminoplatinum(II), reference compound]
- IC50 [2]: 2600 ± 200 nM

Molecule: [Au^IIIBr2((t-Bu)O-Aib-Sar-dtc)] [AUD8]
- IC50 [2]: 550 ± 50 nM
- growth-inhibitory effect on MDA-MB-231 cells [3]: slightly higher activity
- potency relative to previously investigated Au(III)-dithiocarbamato analogues [4]: two-fold more potent
- inhibition of proteasomal chymotrypsin-like activity [4]: concentration-dependent
- potency relative to previously investigated Au(III)-dithiocarbamato analogues [5]: two-fold more potent
- inhibition of proteasomal chymotrypsin-like activity [5]: concentration-dependent
- accumulation of proteasome target proteins (Bax, p27) [6]: induce accumulation of proteasome target proteins
- tumor growth inhibition [7]: > 90%

Molecule: [Au^IIIBr2((t-Bu)O-Gly-Sar-dtc)] [AUD6]
- IC50 [2]: 850 ± 70 nM
- potency relative to previously investigated Au(III)-dithiocarbamato analogues [4]: two-fold more potent
- inhibition of proteasomal chymotrypsin-like activity [4]: concentration-dependent
- potency relative to previously investigated Au(III)-dithiocarbamato analogues [5]: two-fold more potent
- inhibition of proteasomal chymotrypsin-like activity [5]: concentration-dependent
- accumulation of proteasome target proteins (Bax, p27) [6]: induce accumulation of proteasome target proteins
- tumor growth inhibition [7]: ca. 33%

Molecule: [Au^IIICl2((t-Bu)O-Aib-Sar-dtc)] [AUD9]
- IC50 [2]: 750 ± 60 nM

Molecule: [Au^IIICl2((t-Bu)O-Gly-Sar-dtc)] [AUD7]
- IC50 [2]: 1000 ± 100 nM
